Data from patent publication US12247033B2, “Triazole-substituted imidazo[1,2-a]pyrimidines as cGAS inhibitors” (GlaxoSmithKline Intellectual Property Development Limited, priority 2022, dated 2025).

Legend:
[1] = system: CGAS; assay: CGAS whole blood cytokine release assay (384-well, BacMam stimulation, IP-10 by cytometric bead array); format: cell-based; conditions: Homo sapiens, 6 h; read-out: hWB pXC50 (converted)
Procedure: Blood collection: Blood was collected in a tube containing 10% Sodium Heparin (5 ml/45 ml blood final).
Protocol for CGAS Whole Blood Cytokine Release Assay: Compounds serial diluted at 1:3 were provided at 150 nL per well, in a 384 well polypropylene microplate (cat. 781280; Greiner Bio-One, Frickenhausen, Germany). 5 μL of PBS/20% Null BacMam was dispensed to all wells except for column 18 on a Multidrop Combi (Thermo Scientific, Waltham, MA). 5 uL of PBS was dispensed into column 18. The Bravo (Agilent, Santa Clara, CA) was used to transfer 45 uL of donor derived blood into the compound plates. The Bravo protocol mixed the blood and compound/PBS 5 times. The plates were incubated at 37° C., 5% CO2, for 6 hours. At the 6 hour mark the plates were removed and centrifuged for 10 minutes at 3000 RPM. 3 uL of supernatant was transferred from the plate to a 384 well NBS microplate (cat. 4513; Corning Life Sciences, Corning, NY). These plates were sealed with adhesive foil and stored in a −80 freezer until ready for analysis.
For cytokine detection, Human IP-10 BD cytometric bead array (CBA) beads (BD Biosciences, Franklin Lakes, NJ) were used. Capture bead solution was prepared by performing a 1:50 dilution of the IP-10 capture bead stock solution in BD diluent for serum/plasma (cat. 51-9003991 BD Biosciences, Franklin Lakes, NJ). 2 μL of this solution was added per well to the assay microplates which were then sealed with adhesive foil and incubated at room temperature for 2 h in the dark. Detection reagent was further prepared by performing a 1:50 dilution of the detection reagent stock solution. 2 μL of detection reagent was added per well and microplates were sealed with adhesive foil and incubated at room temperature in the dark for 1 h. After the 1 h incubation 3 uL of BD CBA wash buffer was added per well of the microplates. Data were acquired on an iQue Screener flow cytometer. The iQue used fluorescence detection to quantify the inhibition of IP-10 present in the sample wells. A sip time of 1 second per sample was used. The blue laser with excitation of 488 nm and emission filters 585/40 nm were used to capture the mean and median of IP-10 with the detector in logarithmic mode (FL2-H).
All data analysis was carried out in IDBS ActivityBase XE.

[2] = biological target: human CGAS (157-522) (Homo sapiens, UniProt Q8N884); assay: biochemical;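 note: biochemical enzyme reaction, 2′3′-cGAMP product measured by RapidFire mass spectrometry (MRM) normalised to c-di-UMP internal standard, inhibition of product formation relative to high and low control wells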
Chain of human CGAS (157-522) (Q8N884 157-522): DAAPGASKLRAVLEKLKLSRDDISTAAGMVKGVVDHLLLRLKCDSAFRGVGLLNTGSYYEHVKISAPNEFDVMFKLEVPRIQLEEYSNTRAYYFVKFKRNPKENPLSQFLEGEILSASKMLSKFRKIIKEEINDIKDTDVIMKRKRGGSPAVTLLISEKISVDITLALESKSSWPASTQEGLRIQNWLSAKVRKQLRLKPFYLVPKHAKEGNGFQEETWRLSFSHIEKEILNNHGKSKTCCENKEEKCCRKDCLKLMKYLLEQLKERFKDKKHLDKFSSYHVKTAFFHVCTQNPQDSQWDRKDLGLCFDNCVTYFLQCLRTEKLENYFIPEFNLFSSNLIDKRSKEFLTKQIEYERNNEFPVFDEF

Row | SMILES | IC50 [1] [µM] | IC50 [2] [µM]
1 | Brc1n[nH]c(-c2nc3nc4c(cn3c2-c2cnc[nH]2)CCO4)n1 [Example 57, 11-(3-bromo-1H-1,2,4-triazol-5-yl)-12-(1H-imidazol-5-yl)-6-oxa-1,8,10-triazatricyclo[7.3.0.0^3,^7]dodeca-2,7,9,11-tetraene] | 0.0631 | 0.00501
2 | COc1cnc2nc(-c3nc(C(F)(F)F)n[nH]3)c(-c3cnc[nH]3)n2c1 [Example 58, 5-[3-(1H-imidazol-5-yl)-6-methoxyimidazo[1,2-a]pyrimidin-2-yl]-3-(trifluoromethyl)-1H-1,2,4-triazole] | 0.316 | 0.01
3 | OCc1cnc2nc(-c3nc(C(F)(F)F)n[nH]3)c(-c3cnc[nH]3)n2c1 [Example 61, [3-(1H-imidazol-5-yl)-2-[3-(trifluoromethyl)-1H-1,2,4-triazol-5-yl]imidazo[1,2-a]pyrimidin-6-yl]methanol] | 0.398 | 0.0126
4 | FC(F)(F)c1n[nH]c(-c2nc3nc4c(cn3c2-c2cnc[nH]2)CNC4)n1 [Example 63, 12-(1H-imidazol-5-yl)-11-[3-(trifluoromethyl)-1H-1,2,4-triazol-5-yl]-1,5,8,10-tetraazatricyclo[7.3.0.0^3,^7]dodeca-2,7,9,11-tetraene] | 0.794 | 0.00631
5 | FC(F)(F)c1n[nH]c(-c2nc3ncc(C4CCOC4)cn3c2-c2cnc[nH]2)n1 (stereo not shown) [Example 66, 5-[3-(1H-imidazol-5-yl)-6-(oxolan-3-yl)imidazo[1,2-a]pyrimidin-2-yl]-3-(trifluoromethyl)-1H-1,2,4-triazole] | 0.316 | 0.00251
6 | CC(=O)N1Cc2cn3c(-c4cnc[nH]4)c(-c4nc(C(F)(F)F)n[nH]4)nc3nc2C1 [Example 68, 1-[12-(1H-imidazol-5-yl)-11-[3-(trifluoromethyl)-1H-1,2,4-triazol-5-yl]-1,5,8,10-tetraazatricyclo[7.3.0.0^3,^7]dodeca-2,7,9,11-tetraen-5-yl]ethan-1-one] | 1.26 | 0.00501
7 | COCc1cnc2nc(-c3nc(C(F)(F)F)n[nH]3)c(-c3cnc[nH]3)n2c1 [Example 69, 5-[3-(1H-imidazol-5-yl)-6-(methoxymethyl)imidazo[1,2-a]pyrimidin-2-yl]-3-(trifluoromethyl)-1H-1,2,4-triazole] | 0.126 | 0.00251
8 | FC(F)(F)c1n[nH]c(-c2nc3ncc(CN4CCOCC4)cn3c2-c2c[nH]cn2)n1 [Example 70, 4-{[3-(1H-imidazol-4-yl)-2-[3-(trifluoromethyl)-1H-1,2,4-triazol-5-yl]imidazo[1,2-a]pyrimidin-6-yl]methyl}morpholine] | 2 | 0.00316
9 | FC(F)(F)c1n[nH]c(-c2nc3nc4c(cn3c2-c2cnc[nH]2)COCC4)n1 [Example 71, 6-(1H-imidazol-5-yl)-5-[3-(trifluoromethyl)-1H-1,2,4-triazol-5-yl]-11-oxa-2,4,7-triazatricyclo[7.4.0.0^3,^7]trideca-1,3,5,8-tetraene] | 0.126 | 0.00501
10 | FC(F)(F)c1n[nH]c(-c2nc3nc4c(cn3c2-c2cn[nH]c2)COCC4)n1 [Example 72, 6-(1H-pyrazol-4-yl)-5-[3-(trifluoromethyl)-1H-1,2,4-triazol-5-yl]-11-oxa-2,4,7-triazatricyclo[7.4.0.0^3,^7]trideca-1,3,5,8-tetraene] | 15.8 | 0.0126
11 | CN1CCc2nc3nc(-c4nc(C(F)(F)F)n[nH]4)c(-c4cnc[nH]4)n3cc2C1 [Example 73, 6-(1H-imidazol-5-yl)-11-methyl-5-[3-(trifluoromethyl)-1H-1,2,4-triazol-5-yl]-2,4,7,11-tetraazatricyclo[7.4.0.0^3,^7]trideca-1,3,5,8-tetraene] | 0.794 | 0.00631
12 | FC(F)(F)c1n[nH]c(-c2nc3nc4c(cn3c2-c2cnc[nH]2)CNCC4)n1 [Example 74, 6-(1H-imidazol-5-yl)-5-[3-(trifluoromethyl)-1H-1,2,4-triazol-5-yl]-2,4,7,11-tetraazatricyclo[7.4.0.0^3,^7]trideca-1,3,5,8-tetraene] | 1.26 | 0.00794

Further lines, results first:

Row | IC50 [1] [µM] | IC50 [2] [µM] | SMILES
13 | 0.631 | 0.01 | CNCc1cnc2nc(-c3nc(C(F)(F)F)n[nH]3)c(-c3cnc[nH]3)n2c1 [Example 75, {[3-(1H-imidazol-5-yl)-2-[3-(trifluoromethyl)-1H-1,2,4-triazol-5-yl]imidazo[1,2-a]pyrimidin-6-yl]methyl}(methyl)amine]
14 | 0.398 | 0.002 | FC(F)(F)c1n[nH]c(-c2nc3ncc(Br)cn3c2-c2cnc[nH]2)n1 [Example 77, 5-[6-bromo-3-(1H-imidazol-5-yl)imidazo[1,2-a]pyrimidin-2-yl]-3-(trifluoromethyl)-1H-1,2,4-triazole]
15 | 0.398 | 0.00794 | FC(F)(F)c1n[nH]c(-c2nc3ncc(COC4CCOC4)cn3c2-c2cnc[nH]2)n1 (stereo not shown) [Example 78, 5-[3-(1H-imidazol-5-yl)-6-[(oxolan-3-yloxy)methyl]imidazo[1,2-a]pyrimidin-2-yl]-3-(trifluoromethyl)-1H-1,2,4-triazole]
16 | 0.1 | 0.00316 | CCOCc1cnc2nc(-c3nc(C(F)(F)F)n[nH]3)c(-c3cnc[nH]3)n2c1 [Example 79, 5-[6-(ethoxymethyl)-3-(1H-imidazol-5-yl)imidazo[1,2-a]pyrimidin-2-yl]-3-(trifluoromethyl)-1H-1,2,4-triazole]
17 | 12.6 | 0.00316 | FC(F)(F)c1n[nH]c(-c2nc3ncc(COC4CCNC4)cn3c2-c2cnc[nH]2)n1 (stereo not shown) [Example 80, 5-[3-(1H-imidazol-5-yl)-6-[(pyrrolidin-3-yloxy)methyl]imidazo[1,2-a]pyrimidin-2-yl]-3-(trifluoromethyl)-1H-1,2,4-triazole]
18 | 0.158 | 0.00398 | CC(C)(C)C(=O)n1cnc(-c2c(-c3nc(C(F)(F)F)n[nH]3)nc3ncccn23)c1 [Example 81, 2,2-dimethyl-1-(4-{2-[3-(trifluoromethyl)-1H-1,2,4-triazol-5-yl]imidazo[1,2-a]pyrimidin-3-yl}-1H-imidazol-1-yl)propan-1-one]
19 | 0.2 | 0.00501 | FC(F)(F)c1n[nH]c(-c2nc3ncc(C4CCCO4)cn3c2-c2cnc[nH]2)n1 (stereo not shown) [Example 82, 5-[3-(1H-imidazol-5-yl)-6-(oxolan-2-yl)imidazo[1,2-a]pyrimidin-2-yl]-3-(trifluoromethyl)-1H-1,2,4-triazole]
20 | 0.316 | 0.00794 | FC(F)(F)c1n[nH]c(-c2nc3nc4c(cn3c2-c2cnc[nH]2)CNCC4(F)F)n1 [Example 83, 13,13-difluoro-6-(1H-imidazol-5-yl)-5-[3-(trifluoromethyl)-1H-1,2,4-triazol-5-yl]-2,4,7,11-tetraazatricyclo[7.4.0.0^3,^7]trideca-1,3,5,8-tetraene]
21 | 0.158 | 15.8 | CC(=O)OCn1cnc(-c2c(-c3nc(C(F)(F)F)nn3COC(C)=O)nc3ncccn23)c1 [Example 84, [5-(3-{1-[(acetyloxy)methyl]-1H-imidazol-4-yl}imidazo[1,2-a]pyrimidin-2-yl)-3-(trifluoromethyl)-1H-1,2,4-triazol-1-yl]methyl acetate]
22 | 0.0501 | 0.00398 | COCc1cnc2nc(-c3nc(C(F)F)n[nH]3)c(-c3cnc[nH]3)n2c1 [Example 86, 3-(difluoromethyl)-5-[3-(1H-imidazol-5-yl)-6-(methoxymethyl)imidazo[1,2-a]pyrimidin-2-yl]-1H-1,2,4-triazole]
23 | > 31.6 | 2 | CC(=O)N1Cc2cn3c(-c4cnc[nH]4)c(-c4nc(C(F)(F)F)n[nH]4)nc3nc2C(F)(F)C1 [Example 87, 1-[13,13-difluoro-6-(1H-imidazol-5-yl)-5-[3-(trifluoromethyl)-1H-1,2,4-triazol-5-yl]-2,4,7,11-tetraazatricyclo[7.4.0.0^3,^7]trideca-1,3,5,8-tetraen-11-yl]ethan-1-one]
24 | 0.501 | 0.00501 | FC(F)c1n[nH]c(-c2nc3nc(C(F)(F)F)ccn3c2-c2cnc[nH]2)n1 [Example 88, 3-(difluoromethyl)-5-[3-(1H-imidazol-5-yl)-7-(trifluoromethyl)imidazo[1,2-a]pyrimidin-2-yl]-1H-1,2,4-triazole]
25 | 1.58 | 0.00251 | FC(F)(F)c1n[nH]c(-c2nc3ncc(Cc4ccccc4)cn3c2-c2cnc[nH]2)n1 [Example 89, 5-[6-benzyl-3-(1H-imidazol-5-yl)imidazo[1,2-a]pyrimidin-2-yl]-3-(trifluoromethyl)-1H-1,2,4-triazole]
26 | 1 | 0.01 | FC(F)c1n[nH]c(-c2nc3ncccn3c2-c2cn[nH]c2)n1 [Example 90, 3-(difluoromethyl)-5-[3-(1H-pyrazol-4-yl)imidazo[1,2-a]pyrimidin-2-yl]-1H-1,2,4-triazole]
